The source of these data is ChEMBL document CHEMBL1147379, “Antineoplastic agents, 256. Cell growth inhibitory isocarbostyrils from Hymenocallis” (1993).

In the test the test system is P388. In words: Growth inhibition of mouse P388 cells. In kind it is functional. Conditions: read-out: ED50 (the source's name).

Each structure is given as a SMILES string. In brackets after ≈: the same amount, converted by molar mass.

Take `O=C1N[C@H]2[C@H](O)[C@H](O)[C@@H](O)C[C@@H]2c2cc3c(c(O)c21)OCO3`: the EC50 came out at 0.02 µg/mL (≈ 0.0647 µM).
